From patent publication US12215098B2 (priority 2018, dated 2025) come the findings set out here.

“Also recorded” adds a separate entry of the source.

Data set [1] deals with NASH model (high-fat diet feeding and CCl4 induction). Kind of data set: In vivo efficacy assay, high-fat diet and CCl4 induced NASH model. Also noted: species or system mice. The method, then: The model building in this assay included two steps: high-fat diet feeding and CCl4 induction. Firstly, the mice were fed with high-fat diet to induce non-alcoholic fatty liver. The mice with a body weight of >35 g were selected and continued to be fed with high-fat diet while being administered with 25% CCl4 ([…]) by intraperitoneal injection twice a week for four weeks.
The day when the administration of CCl4 was started was set as day 0, and the time when the administration of CCl4 was started was set as hour 0. On the day when the administration of CCl4 was started, the administration was started by intragastric gavage. […] The time point of the injection of CCl4 should be 4 hours or longer apart from the time point of the first administration of the day.
The healthy control group consisted of 6 normal mice, which were fed with ordinary diet during the assay, without CCl4 injection.
48 obese mice were used in the model group and the administration group. Each group consisted of 8 mice. After grouping, the mice were injected intraperitoneally with CCl4 and administered with different doses of drugs or vehicle, respectively.
The analysis software Graphpad Prism6 was used for comparation between two groups.
For the analysis of hepatic pathology in animal models of non-alcoholic steatohepatitis, the therapeutic effect of the compound on NAFLD was comprehensively evaluated in three aspects of hepatocyte steatosis, hepatocyte ballooming degeneration, and inflammation accumulation in hepatic lobule with the reference of clinicopathological diagnosis and evaluation criteria for NAFLD, and using NAFLD activity score (NAS).
All slices stained with Sirius red were wholly scanned by a Digital pathoscope 4S slide scanner. 2 fields of view were randomly selected under a 5× field of view, and 2 fields of view covered 85% of the liver tissue area. Image pro-plus 6.0 software was then used for quantitative analysis, and fibrosis deposition area in the slice was calculated.

In data set [2] the target is Glutathione-S-transferase-labeled FXR human protein (Homo sapiens (Human), UniProt Q96RI1). As to the kind of experiment: FXR biochemical assay (alphascreen). The conditions noted are these: FXR with biotin-labeled steroid receptor coactivator, read-out: EC50 (nM) Mean ± SEM, activation effect on FXR. The procedure:
1. […] The reference compound was prepared as a 400 μM DMSO solution, and then diluted 1.5-fold to 10 concentration points. […] 2. […] 3. […] 4. […] 5. […] 6.

Data set [3] in a line: Hygroscopicity study by dynamic vapor sorption (DVS). It is filed as physicochemical. The conditions noted are these: 25° C. and 80% RH. The procedure:
Dynamic Vapor Sorption (DVS) Method Used in the Present Disclosure
Instrument model: SMS DVS Advantage dynamic vapor sorption apparatus
Test condition: The sample (10 to 15 mg) was placed in a DVS sample pan for testing.
The detailed DVS parameters were as follows:
Equilibration: dm/dt=0.01%/min (The shortest time: 10 min, and the longest time: 180 min)
Drying: Dried for 120 min at 0% RH
RH (%) test gradient: 10%
Range of RH (%) test gradient: 0%-90%-0%
The classification of hygroscopicity evaluation was as follows:
SMS DVS Advantage dynamic vapor sorption apparatus

Data set [4] is described as follows: Solid stability test (high temperature, high humidity, strong light; XRPD). The class given is physicochemical. The text has this:
For the samples placed under high temperature and high humidity conditions, the vial opening was sealed with aluminum foil paper and small holes were punched in the aluminum foil paper to ensure that the sample can fully contact the ambient air. For the samples placed under strong light condition, the vial opening was sealed with aluminum foil paper. The samples placed under various conditions were sampled and tested for XRPD on the 5th day and 10th day, and the test results were compared with the initial test results on day 0.

Setting [5] is: 15 mg/kg, intragastric gavage once a day, 28 days, Mean±SEM.
Where [6] appears, read: 7.5 mg/kg, intragastric gavage once a day, 28 days, Mean±SEM.

Glutathione-S-transferase-labeled FXR human protein, sequence (Q96RI1 whole entry): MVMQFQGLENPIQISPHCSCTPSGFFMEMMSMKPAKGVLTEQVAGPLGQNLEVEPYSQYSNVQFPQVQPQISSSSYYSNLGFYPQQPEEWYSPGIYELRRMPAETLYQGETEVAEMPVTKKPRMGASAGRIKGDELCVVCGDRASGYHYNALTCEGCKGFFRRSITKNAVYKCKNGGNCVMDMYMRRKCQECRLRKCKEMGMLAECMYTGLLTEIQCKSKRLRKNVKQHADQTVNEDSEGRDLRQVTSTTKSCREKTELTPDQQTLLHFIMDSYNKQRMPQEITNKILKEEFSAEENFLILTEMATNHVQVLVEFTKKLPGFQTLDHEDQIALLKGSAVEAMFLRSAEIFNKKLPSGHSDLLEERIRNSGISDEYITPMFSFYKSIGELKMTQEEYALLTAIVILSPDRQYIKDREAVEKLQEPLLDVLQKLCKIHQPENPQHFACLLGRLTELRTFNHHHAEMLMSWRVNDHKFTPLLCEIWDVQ

Regarding `O=C(O)c1ccnc(N2CC(O)(c3ccc(OCc4c(-c5c(Cl)cccc5Cl)noc4C4CC4)cc3Cl)C2)c1` [PX-104, reference compound], in data set [1] (setting [5]), the “Hepatocyte ballooming degeneration score” value is recorded as 0.0 and the NAS score is listed as 1.479. Also, the NAS score entry in data set [1] (15 mg/kg, intragastric gavage once a day, 28 days, Mean±SEM, listed as PX104) was “significantly reduce the NAS score”. The EC50 in data set [2] is 65.2 nM.
Turning to `O=C(O)c1cnc(N2C(=O)CCc3cc(OCc4c(-c5c(Cl)cccc5Cl)noc4C4CC4)ccc32)c(Cl)c1` [compound of formula (I)], in data set [1] (setting [6]), the “Hepatic fibrosis (fibrosis deposition area, Sirius red)” value is listed as 2.580 and the “Hepatocyte ballooming degeneration score” value stood at 0.0. In data set [1] (setting [5]), the Hepatic steatosis score is 0.854 and the “Hepatocyte ballooming degeneration score” value turned out to be 0.0. For the same compound, the “Hepatocyte ballooming degeneration score” value in data set [1] (45 mg/kg, intragastric gavage once a day, 28 days, Mean±SEM, one mouse 0.17 determined as abnormal value) is listed as 0.021^@ ±. Moreover, the “Hepatic function and hepatic damage (in words)” value in data set [1] (conclusion of the assay) was “significantly improve hepatic function and reduce hepatic damage”.
As to `O=C(O)c1cnc(N2C(=O)CCc3cc(OCc4c(-c5c(Cl)cccc5Cl)noc4C4CC4)ccc32)c(Cl)c1`, the Classification of hygroscopicity entry in data set [3] was “slightly hygroscopic”. Besides, the “ΔW, weight increase by moisture absorption” value in data set [3] was determined as 0.5834%. For the same compound, the “Crystal form (XRPD)” value in data set [4] (Day 0, initial) is listed as “Crystal form A”; in data set [4] (High humidity (room temperature/relative humidity at 92.5%, open), Day 5), “Crystal form A”; in data set [4] (High humidity (room temperature/relative humidity at 92.5%, open), Day 10), “Crystal form A”; in data set [4] (High temperature (60° C., open), Day 5) it was “Crystal form A”; in data set [4] (High temperature (60° C., open), Day 10), “Crystal form A”; in data set [4] (Strong light (5000 lx, sealed), Day 5), “Crystal form A”. Also, in data set [4] (Strong light (5000 lx, sealed), Day 10), the “Crystal form (XRPD)” value was “Crystal form A”. For the same compound, the “Solid stability (in words)” value in data set [4] (high temperature, high humidity and strong light) is listed as “good stability; also recorded: stable”.
